Laboratory results reported in patent US6403633B2, “Heteroaryl amidines, methylamidines and guanidines, and use thereof as protease inhibitors” (3-Dimensional Pharmaceuticals, Inc., priority 1998, dated 2002).
Where a name gives a salt, the structure may show the parent alone. Read-outs that look alike come from different tables or passages of the source.

Experiments:
[1] = biological target: T1, bovine trypsin (Bos taurus, UniProt P00760); test: In vitro inhibition of purified enzymes, Ki determination: trypsin; assay type: biochemical; details: substrate N-benzoyl-Phe-Val-Arg-p-nitroanilide 13 μM, [Trypsin]=4 nM, pH 7.5, 37° C.
T1 construct: purchased Sigma T8642
T1 sequence (P00760 24-246): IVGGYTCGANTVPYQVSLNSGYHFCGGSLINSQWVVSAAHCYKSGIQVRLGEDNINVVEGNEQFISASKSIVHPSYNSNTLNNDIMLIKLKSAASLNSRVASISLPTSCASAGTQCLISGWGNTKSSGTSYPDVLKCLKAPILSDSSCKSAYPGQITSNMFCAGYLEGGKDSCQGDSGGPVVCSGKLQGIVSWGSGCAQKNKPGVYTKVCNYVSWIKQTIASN
Text: (§1) Reagents: All buffer salts were obtained from Sigma Chemical Company (St. Louis, Mo.), and were of the highest purity available. The enzyme substrates, N-benzoyl-Phe-Val-Arg-p-nitroanilide (Sigma B7632), N-benzoyl-Ile-Glu-Gly-Arg-p-nitroanilide hydrochloride (Sigma B2291), N-p-tosyl-Gly-Pro-Lys-p-nitroanilide (Sigma T6140), N-succinyl-Ala-Ala-Pro-Phe-p-nitroanilide (Sigma S7388) and N-CBZ-Val-Gly-Arg-p-nitroanilide (Sigma C7271) were obtained from Sigma. N-Succinyl-Ala-Ala-Pro-Arg-p-nitroanilide (BACHEM L-1720) and N-succinyl-Ala-Ala-Pro-Val-p-nitroanilide (BACHEM L-1770) were obtained from BACHEM (King of Prussia, Pa).
Human α-thrombin, human factor Xa and human plasmin were obtained from Enzyme Research Laboratories (South Bend, Ind.). […] In general, substrate concentrations are lower than the experimentally determined value for Km. […]
In a typical Ki determination, into each well of a 96 well plate is pipetted 280 μL of substrate solution, 10 μL of test compound solution, and the plate allowed to thermally equilibrate at 37° C. in a Molecular Devices plate reader for >15 minutes. Reactions were initiated by the addition of a 10 μL aliquot of enzyme and the absorbance increase at 405 nm is recorded for 15 minutes. […] The data are fit to a linear regression, and the value of the slope of the line calculated. The inverse of the slope is the experimentally determined Ki value. […]

[2] = biological target: T2, human kidney urokinase (Homo sapiens, UniProt P00749); test: In vitro inhibition of purified enzymes, Ki determination: urokinase (uPA); assay type: biochemical
T2 construct: purchased Sigma U5004; host or cells: human kidney cells
Text: as §1, with “Sigma.” for “Sigma. N-Succinyl-Ala-Ala-Pro-Arg-p-nitroanilide (BACHEM L-1720) and N-succinyl-Ala-Ala-Pro-Val-p-nitroanilide (BACHEM L-1770) were obtained from BACHEM (King of Prussia, Pa).”
Human α-thrombin, human factor Xa and human plasmin were obtained from Enzyme Research Laboratories (South Bend, Ind.). Bovine α-chymotrypsin (Sigma C4129), bovine trypsin (Sigma T8642) and human kidney cell urokinase (Sigma U5004) were obtained from Sigma. Human leukocyte elastase was obtained from Elastin Products (Pacific, Mo.). Ki Determinations: All assays are based on the ability of the test compound to inhibit the enzyme catalyzed hydrolysis of a peptide p-nitroanilide substrate. […] The final concentrations for each of the substrates is listed below. In general, substrate concentrations are lower than the experimentally determined value for Km. Test compounds are prepared as a 1.0 mg/ml solution in DMSO. Dilutions are prepared in DMSO yielding 8 final concentrations encompassing a 200 fold concentration range. Enzyme solutions are prepared at the concentrations listed below in assay buffer.
Data corresponding to less than 10% of the total substrate hydrolysis were used in the calculations. The ratio of the velocity (rate of change in absorbance as a function of time) for a sample containing no test compound is divided by the velocity of a sample containing test compound, and is plotted as a function of test compound concentration. The data are fit to a linear regression, and the value of the slope of the line calculated. The inverse of the slope is the experimentally determined Ki value. Thrombin: Thrombin activity was assessed as the ability to hydrolyze the substrate N-succinyl-Ala-Ala-Pro-Arg-p-nitroanilide. […] Final DMSO concentration was 4.3%. […] Factor X [FXa]: FXa activity was assessed as the ability to hydrolyze the substrate N-benzoyl-Ile-Glu-Gly-Arg-p-nitroanilide hydrochloride. […] Final DMSO concentration was 4.3%. Purified activated human Factor X was diluted into assay buffer to a concentration of 300 nM. […] Plasmin: Plasmin activity was assessed as the ability to hydrolyze the N-p-Tosyl-Gly-Pro-Lys-p-nitroanilide. […] Final DMSO concentration was 4.3%. […] Chymotrypsin: Chymotrypsin activity was assessed as the ability to hydrolyze N-succinyl-Ala-Ala-Pro-Phe-p-nitroanilide. […] Final DMSO concentration was 4.3%. […] Trypsin: Trypsin activity was assessed as the ability to hydrolyze N-benzoyl-Phe-Val-Arg-p-nitroanilide. […] Final DMSO concentration was 4.3%. […] Elastase: Elastase activity was assessed as the ability to hydrolyze N-succinyl-Ala-Ala-Pro-Val-p-nitroanilide. […] Final DMSO concentration was 4.3%. […] Urokinase: Urokinase activity was assessed as the ability to hydrolyze N-CBZ-Val-Gly-Arg-p-nitroanilide. […] Final DMSO concentration was 4.3%. […] Final reagent concentrations were: [Urokinase]=40 nM, and N-CBZ-Val-Gly-Arg-p-nitroanilide]=[…].

[3] = uPA, substrate N-CBZ-Val-Gly-Arg-p-nitroanilide, [Urokinase]=40 nM, pH 7.5, 37° C., one range stated for the listed compounds, read-out: Ki values for uPA

SMILES: COc1cccc(-c2csc(-c3cc(C(=N)N)sc3SC)n2)c1 [Example 8, 4-[4-(3-Methoxyphenyl)(1,3-thiazol-2-yl)]-5-methylthiothiophene-2-carboxamidine hydrochloride]
- Ki [1]: 858 nM

SMILES: COc1ccc(OC)c(-c2csc(-c3cc(C(=N)N)sc3SC)n2)c1 [Example 28, 4-[4-(2,5-Dimethoxyphenyl)(1,3-thiazol-2-yl)]-5-methylthiothiophene-2-carboxamidine hydrochloride]
- Ki [2, 3]: 16 to 3500 nM

SMILES: CSc1sc(C(=N)N)cc1-c1nc(-c2cccc(OCC(=O)O)c2)cs1 [Example 40, 2-{3-[2-(5-Amidino-2-methylthio-3-thienyl)-1,3-thiazol-4-yl]phenoxy}acetic acid]
- Ki [2, 3]: 16 to 3500 nM

SMILES: CSc1sc(C(=N)N)cc1-c1nc(-c2cccc(OCC(=O)N3CCOCC3)c2)cs1 [Example 52, 5-Methylthio-4-{4-[3-(2-morpholin-4-yl-2-oxoethox)phenyl](1,3-thiazol-2-yl)}thiophene-2-carboxamidine trifluoroacetate]
- Ki [1]: 474 nM

SMILES: CSc1sc(C(=N)N)cc1-c1ncc(-c2ccccc2)o1 [Example 79, 5-Methylthio-4-(5-phenyl(1,3-oxazol-2-yl))thiophene-2-carboxamidine hydrochloride]
- Ki [2, 3]: 16 to 3500 nM

SMILES: CSc1sc(C(=N)N)cc1-c1nc(-c2ccccc2)co1 [Example 84, 5-Methylthio-4-(4-phenyl(1,3-oxazol-2-yl))thiophene-2-carboxamidine hydrochloride]
- Ki [2, 3]: 16 to 3500 nM

SMILES: CSc1sc(C(=N)N)cc1C(=N)NCc1ccccc1 [Example 89, 4-{Imino[benzylamino]methyl}-5-methylthiothiophene-2-carboxamidine hydrochloride]
- Ki [2, 3]: 16 to 3500 nM

SMILES: CSc1sc(C(=N)N)cc1-c1nc(-c2ccccc2)c(-c2ccccc2)s1 [Example 131, 4-(4,5-Diphenyl(1,3-thiazol-2-yl))-5-methylthiothiophene-2-carboxamidine]
- Ki [2, 3]: 16 to 3500 nM

SMILES: C[S+]([O-])c1sc(C(=N)N)cc1-c1nc(-c2ccc(Cl)cc2)cs1 (stereo not shown) [Example 138, 4-[4-(4-Chlorophenyl)(1,3-thiazol-2-yl)]-5-(methylsulfinyl)thiophene-2-carboxamidine]
- Ki [2, 3]: 16 to 3500 nM

SMILES: COc1sc(C(=N)N)cc1-c1nc(-c2ccccc2)cs1 [Example 139, 5-Methoxy-4-(4-phenyl(1,3-thiazol-2-yl))thiophene-2-carboxamidine]
- Ki [2, 3]: 16 to 3500 nM

SMILES: CSc1sc(C(=N)N)cc1-c1nc(-c2cc(C(C)(C)C)nn2Cc2ccccc2)cs1 [Example 143, 4-{4-[3-(tert-Butyl)-1-benzylpyrazol-5-yl](1,3-thiazol-2-yl)}-5-methylthiothiophene-2-carboxamidine]
- Ki [2, 3]: 16 to 3500 nM

SMILES: CSc1sc(C(=N)N)cc1Nc1ncccn1 [Example 200, 5-Methylthio-4-(pyrimidin-2-ylamino)thiophene-2-carboxamidine hydrochloride]
- Ki [2, 3]: 16 to 3500 nM

SMILES: CSc1sc(C(=N)N)cc1Nc1nc(-c2ccccc2)cs1 [Example 204, 5-Methylthio-4-[(4-phenyl(1,3-thiazol-2-yl))amino]thiophene-2-carboxamidine]
- Ki [2, 3]: 16 to 3500 nM

SMILES: CSc1sc(C(=N)N)cc1Nc1ccc2ccccc2c1 [Example 208, 5-Methylthio-4-(2-naphthylamino)thiophene-2-carboxamidine]
- Ki [2, 3]: 16 to 3500 nM

SMILES: CSc1sc(C(=N)N)cc1Nc1cccc([N+](=O)[O-])c1 [Example 213, 5-Methylthio-4-[(3-nitrophenyl)amino]thiophene-2-carboxamidine]
- Ki [2, 3]: 16 to 3500 nM

SMILES: CSc1sc(C(=N)N)cc1NCc1ccccc1 [Example 220, 5-Methylthio-4-[benzylamino]thiophene-2-carboxamidine]
- Ki [2, 3]: 16 to 3500 nM

SMILES: CSc1sc(C(=N)N)cc1NC(=O)/C=C/c1ccccc1 [Example 227, 4-((2E)-3-Phenylprop-2-enoylamino)-5-methylthiothiophene-2-carboxamidine]
- Ki [2, 3]: 16 to 3500 nM

SMILES: CSc1sc(C(=N)N)cc1NC(=O)c1ccc(Oc2cc(Cl)cc(Cl)c2)o1 [Example 233]
- Ki [2, 3]: 16 to 3500 nM

SMILES: CSc1sc(C(=N)N)cc1NC(=O)c1ccc2ccccc2n1 [Example 235, 5-Methylthio-4-(2-quinolylcarbonylamino)thiophene-2-carboxamidine]
- Ki [2, 3]: 16 to 3500 nM

SMILES: CSc1sc(C(=N)N)cc1NC(=O)COc1ccccc1 [Example 239, 5-Methylthio-4-(2-phenoxyacetylamino)thiophene-2-carboxamidine]
- Ki [2, 3]: 16 to 3500 nM

SMILES: CSc1sc(C(=N)N)cc1N(S(=O)(=O)c1ccc(Cl)cc1)S(=O)(=O)c1ccc(Cl)cc1 [Example 281, 4-{Bis[(4-chlorophenyl)sulfonyl]amino}-5-methylthiothiophene-2-carboxamidine]
- Ki [2, 3]: 16 to 3500 nM

SMILES: CSc1sc(C(=N)N)cc1Oc1ccccc1 [Example 288, 5-Methylthio-4-phenoxythiophene-2-carboxamidine trifluoroacetate]
- Ki [2]: 16 to 3500 nM
